Assay results reported in patent US6492338B1, “Therapeutic agents” (Takara Shuzo Co., Ltd., priority 1998, dated 2002).

Tests used:
Aldose reductase (AR) = biological target: T1, Aldose reductase (AR) (Homo sapiens, UniProt P15121); assay: AR (aldose reductase) inhibitory activity, NADPH/methylglyoxal, absorbance at 340 nm; format: biochemical
T1 construct: purchased Wako Pure Chemical Industries 012-13991
Description: 2,5-dihydroxytetrahydro-2-furancarboxylic acid was added to an AR reaction system to determine the AR inhibitory activity.
NADPH (Nacalai Tesque) as a hydrogen donor and methylglyoxal (Nacalai Tesque) as a substrate for the enzyme were used. A commercially available enzyme solution (Wako Pure Chemical Industries, code 012-13991) was diluted. for use as AR.
The AR activity was measured as follows.
40 μl of sterile pure water, 20 μl of 1 mM aqueous NADPH solution and 10 μl of enzyme dilution were added to 100 μl of 200 mM phosphate buffer (pH 6.2). 10 μl of sterile pure water was further added to the mixture. After 20 μl of 100 mM aqueous methylglyoxal solution was added thereto, the change in absorbance at 340 nm was monitored at room temperature for 3 minutes. The enzymatic activity was determined on the basis of the change in absorbance per minute. Next, aqueous solution of 2,5-dihydroxytetrahydro-2-furancarboxylic acid at a varying concentration was added to the reaction system as described above in place of 10 μl of sterile pure water. The enzymatic activity was then determined as described above.
The AR inhibitory activity of 2,5-dihydroxytetrahydro-2-furancarboxylic acid was determined based on the enzymatic activity inhibition rate calculated according to the following equation:
Enzymatic activity inhibition rate (%)={1-(enzymatic activity with the addition of aqueous 2,5-dihydroxytetrahydro-2-furancarboxylic acid solution)/(enzymatic activity with the addition of water)}×100.

[1] = system: alcohol dehydrogenase (ADH); assay: ADH inhibitory activity, NAD/ethanol, absorbance at 340 nm; format: biochemical; conditions: final concentration 10.8 μg/ml (IC50 for AR activity)
Description: Next, 2,5-dihydroxytetrahydro-2-furancarboxylic acid was added to an ADH reaction system to determine the ADH inhibitory activity.
A commercially available lyophilized product (Nacalai Tesque, code 012-83) was dissolved in water for use as ADH. NAD (Nacalai Tesque) as a hydrogen donor and ethanol (Nacalai Tesque) as a substrate for the enzyme were used.
The ADH activity was measured as follows.
50 μl of water, 20 μl of 3 mM aqueous NAD solution and 10 μl of enzyme solution were added to 100 μl of 200 mM phosphate buffer (pH 6.2). 10 μl of sterile pure water was further added to the mixture. After 10 μl of 60% ethanol was added thereto, the change in absorbance at 340 nm was monitored at room temperature for 3 minutes. The enzymatic activity was determined on the basis of the change in absorbance per minute.
Next, aqueous solution of 2,5-dihydroxytetrahydro-2-furancarboxylic acid at a final concentration of 10.8 μg/ml and sterile pure water were added to the reaction system as described above in place of 10 μl of sterile pure water. The enzymatic activity was then determined as described above. The ADH enzymatic activity inhibition rate was calculated according to the above-mentioned equation based on the enzymatic activity.

- IC50 (Aldose reductase (AR); calculated from concentration and AR activity inhibition rate of Table 1, read-out: concentration in the enzymatic reaction mixture that results in the activity inhibition rate of 50% (IC50), AR (converted)): ~72.9 µM
- Activity inhibition rate (AR) (Aldose reductase (AR); concentration in enzymatic reaction system 0.5 μg/ml): 8.1%
- Activity inhibition rate (AR) (Aldose reductase (AR); concentration in enzymatic reaction system 5 μg/ml): 34.8%
- Activity inhibition rate (AR) (Aldose reductase (AR); concentration in enzymatic reaction system 50 μg/ml): 81.6%
- Activity inhibition rate (AR) (Aldose reductase (AR); concentration in enzymatic reaction system 500 μg/ml): 96.3%
- ADH activity inhibition rate [1]: 7.1%
SMILES: O=C(O)C1(O)CCC(O)O1 (stereo not drawn) [2,5-dihydroxytetrahydro-2-furancarboxylic acid]
